Laboratory results as given in ChEMBL document CHEMBL4177750, “Imidazopyrazinones (IPYs): Non-Quinolone Bacterial Topoisomerase Inhibitors Showing Partial Cross-Resistance with Quinolones” (J Med Chem, 2018).
Converted amounts (≈) assume the structure as drawn. The source made the active and inactive calls. The calls are words filed in the database; no cut-off is given here.

Tests used:
[1] = test system: Escherichia coli; assay: Antibacterial activity against ESBL producing Escherichia coli ATCC 35218 after 20 to 22 hrs; type: functional
[2] = test system: Escherichia coli; assay: Antibacterial activity against Escherichia coli K-12 MG1655 after 20 to 22 hrs; conditions: K-12 substr. MG1655
[3] = test system: Escherichia coli; assay: Antibacterial activity against tolC-deficient Escherichia coli K-12 MG1655 after 20 to 22 hrs; type: functional; conditions: K-12 substr. MG1655
[4] = test system: Escherichia coli; assay: Antibacterial activity against hyperpermeable Escherichia coli D22 harboring LpxC mutant after 20 to 22 hrs
[5] = test system: Pseudomonas aeruginosa; assay: Antibacterial activity against Pseudomonas aeruginosa PAO1 after 20 to 22 hrs; type: functional
[6] = test system: Pseudomonas aeruginosa; assay: Antibacterial activity against Pseudomonas aeruginosa PAO750 harboring mexAB-oprM/mexCD-oprJ/mexEF-oprN/mexXY/opmH/mexJK/pscC deletion mutant after 20 to 22 hrs; type: functional
[7] = test system: Staphylococcus aureus; assay: Antibacterial activity against methicillin-resistant Staphylococcus aureus ATCC 33592 after 20 to 22 hrs; type: functional
[8] = Cytotoxicity against human HepG2 cells assessed as decrease in cell viability after 40 hrs by Celltiter Glo assay
[9] = test system: Acinetobacter baumannii; assay: Antibacterial activity against Acinetobacter baumannii BM4652 harboring adeABC/adeIJK deletion mutant after 20 to 22 hrs; type: functional
[10] = test system: Klebsiella pneumoniae; assay: Antibacterial activity against tolC-deficient Klebsiella pneumoniae 1161486a after 20 to 22 hrs; type: functional
[11] = test system: Acinetobacter baumannii; assay: Antibacterial activity against Acinetobacter baumannii BM4454 after 20 to 22 hrs; type: functional
[12] = test system: Klebsiella pneumoniae; assay: Antibacterial activity against Klebsiella pneumoniae 1161486 after 20 to 22 hrs; type: functional
[13] = test system: Staphylococcus aureus; assay: Antibacterial activity against methicillin-resistant Staphylococcus aureus ATCC 33592 after 20 to 22 hrs in presence of 50% calf fetal serum; type: functional, organism-based
[14] = test system: Staphylococcus aureus; assay: Antibacterial activity against methicillin-resistant Staphylococcus aureus ATCC 33592 after 20 to 22 hrs in presence of 50% mouse serum; type: functional, organism-based
[15] = target: T1, Muscarinic acetylcholine receptor M1 (Homo sapiens) (UniProt P11229); assay: Inhibition of M1 receptor (unknown origin) at 10 uM relative to control
T1 sequence (whole entry): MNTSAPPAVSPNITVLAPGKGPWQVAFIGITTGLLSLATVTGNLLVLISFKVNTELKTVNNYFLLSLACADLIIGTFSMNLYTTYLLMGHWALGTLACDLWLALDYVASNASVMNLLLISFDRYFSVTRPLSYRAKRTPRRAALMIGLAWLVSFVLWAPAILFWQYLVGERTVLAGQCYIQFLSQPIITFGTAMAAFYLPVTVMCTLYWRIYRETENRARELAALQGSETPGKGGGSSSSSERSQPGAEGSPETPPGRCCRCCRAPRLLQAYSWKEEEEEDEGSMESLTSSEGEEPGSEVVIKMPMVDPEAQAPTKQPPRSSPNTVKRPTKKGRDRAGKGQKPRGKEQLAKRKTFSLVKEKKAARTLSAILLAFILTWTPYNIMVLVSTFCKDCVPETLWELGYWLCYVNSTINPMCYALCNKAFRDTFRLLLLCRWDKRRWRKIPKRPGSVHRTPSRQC

[16] = target: Muscarinic acetylcholine receptor M3 (Homo sapiens) (UniProt P20309); assay: Inhibition of M3 receptor (unknown origin) at 10 uM relative to control
Sequence of Muscarinic acetylcholine receptor M3 (Homo sapiens) (P20309 whole entry, looked up): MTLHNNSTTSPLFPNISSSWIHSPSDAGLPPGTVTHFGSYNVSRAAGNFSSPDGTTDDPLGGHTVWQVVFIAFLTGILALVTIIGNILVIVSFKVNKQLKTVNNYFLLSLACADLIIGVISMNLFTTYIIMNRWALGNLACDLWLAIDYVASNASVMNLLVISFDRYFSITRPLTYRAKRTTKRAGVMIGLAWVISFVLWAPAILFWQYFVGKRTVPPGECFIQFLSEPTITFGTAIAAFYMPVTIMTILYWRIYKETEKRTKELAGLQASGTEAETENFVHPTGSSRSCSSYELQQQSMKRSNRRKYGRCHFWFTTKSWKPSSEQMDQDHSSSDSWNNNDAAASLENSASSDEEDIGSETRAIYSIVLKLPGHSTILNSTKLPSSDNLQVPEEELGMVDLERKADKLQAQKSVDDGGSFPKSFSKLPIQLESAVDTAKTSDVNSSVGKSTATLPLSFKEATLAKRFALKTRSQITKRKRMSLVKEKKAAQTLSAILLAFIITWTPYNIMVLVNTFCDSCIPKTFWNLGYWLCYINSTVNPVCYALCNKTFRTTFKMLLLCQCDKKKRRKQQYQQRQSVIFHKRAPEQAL

[17] = Thermodynamic aqueous solubility of the compound at pH 7.4; conditions: aqueous solution
[18] = Apparent permeability across human Caco2 cells; conditions: Caco-2
[19] = Drug metabolism in human liver microsomes at 5 uM after 20 mins in presence of NADPH; type: ADME, microsome; conditions: read-out: Drug metabolism
[20] = Drug metabolism in mouse liver microsomes at 5 uM after 20 mins in presence of NADPH; type: ADME, microsome; conditions: read-out: Drug metabolism
[21] = Drug metabolism in rat liver microsomes at 5 uM after 20 mins in presence of NADPH; type: ADME, microsome; conditions: read-out: Drug metabolism
[22] = target: T2, Cytochrome P450 3A4 (Homo sapiens, UniProt P08684); assay: Inhibition of CYP3A4-mediated midazolam metabolism in human liver microsomes
T2 sequence (P08684 whole entry): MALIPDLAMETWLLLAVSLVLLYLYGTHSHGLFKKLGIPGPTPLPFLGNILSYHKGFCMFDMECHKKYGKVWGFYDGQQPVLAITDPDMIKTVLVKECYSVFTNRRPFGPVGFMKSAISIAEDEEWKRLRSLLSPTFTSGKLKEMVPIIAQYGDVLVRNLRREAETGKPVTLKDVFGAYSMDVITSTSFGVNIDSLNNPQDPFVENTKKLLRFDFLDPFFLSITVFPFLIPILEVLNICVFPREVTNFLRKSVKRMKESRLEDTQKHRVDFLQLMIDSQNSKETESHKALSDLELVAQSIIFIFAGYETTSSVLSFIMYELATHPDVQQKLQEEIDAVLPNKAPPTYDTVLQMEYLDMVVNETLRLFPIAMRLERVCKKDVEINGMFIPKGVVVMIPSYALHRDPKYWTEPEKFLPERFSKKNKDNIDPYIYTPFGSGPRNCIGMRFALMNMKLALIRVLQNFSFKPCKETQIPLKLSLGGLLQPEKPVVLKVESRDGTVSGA

[23] = target: T2, Cytochrome P450 3A4; assay: Inhibition of CYP3A4-mediated testosterone metabolism in human liver microsomes
[24] = target: Voltage-gated inwardly rectifying potassium channel KCNH2 (Homo sapiens, UniProt Q12809); assay: Inhibition of human ERG transfected in CHO cells by patch clamp method
Sequence of Voltage-gated inwardly rectifying potassium channel KCNH2 (Q12809 whole entry): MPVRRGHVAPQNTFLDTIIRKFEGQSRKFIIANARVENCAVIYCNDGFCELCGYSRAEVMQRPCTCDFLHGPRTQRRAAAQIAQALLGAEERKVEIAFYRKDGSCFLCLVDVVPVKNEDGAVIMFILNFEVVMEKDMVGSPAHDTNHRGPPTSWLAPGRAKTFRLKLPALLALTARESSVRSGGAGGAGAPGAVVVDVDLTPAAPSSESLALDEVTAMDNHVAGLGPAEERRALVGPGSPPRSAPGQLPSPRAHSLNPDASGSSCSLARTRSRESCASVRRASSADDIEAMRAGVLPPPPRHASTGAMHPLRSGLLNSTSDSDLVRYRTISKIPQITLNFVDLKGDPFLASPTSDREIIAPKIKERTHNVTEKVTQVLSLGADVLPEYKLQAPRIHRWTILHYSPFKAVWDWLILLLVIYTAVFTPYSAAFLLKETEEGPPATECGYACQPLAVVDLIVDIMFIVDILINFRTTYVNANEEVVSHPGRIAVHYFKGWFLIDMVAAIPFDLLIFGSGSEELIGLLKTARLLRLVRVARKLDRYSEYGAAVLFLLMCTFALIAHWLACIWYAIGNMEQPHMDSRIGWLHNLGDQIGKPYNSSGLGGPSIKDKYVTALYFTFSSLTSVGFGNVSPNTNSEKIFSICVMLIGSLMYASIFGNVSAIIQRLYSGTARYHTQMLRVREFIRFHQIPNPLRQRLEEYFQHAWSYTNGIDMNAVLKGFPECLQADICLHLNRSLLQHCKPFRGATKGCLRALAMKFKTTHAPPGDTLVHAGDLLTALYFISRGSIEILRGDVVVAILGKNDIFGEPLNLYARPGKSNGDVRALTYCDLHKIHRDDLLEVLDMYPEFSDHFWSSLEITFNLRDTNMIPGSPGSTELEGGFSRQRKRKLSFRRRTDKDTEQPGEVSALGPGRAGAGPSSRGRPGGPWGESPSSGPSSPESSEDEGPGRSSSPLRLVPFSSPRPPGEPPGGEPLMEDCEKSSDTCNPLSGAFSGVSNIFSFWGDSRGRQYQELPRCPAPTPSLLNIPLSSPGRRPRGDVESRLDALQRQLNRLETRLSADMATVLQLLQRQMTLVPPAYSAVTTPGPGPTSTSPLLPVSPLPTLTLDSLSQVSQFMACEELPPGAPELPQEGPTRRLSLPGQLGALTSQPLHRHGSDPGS

[25] = Metabolic stability in mouse plasma at 1 uM after 4 hrs; type: ADME, cell-free; conditions: read-out: Stability
[26] = Metabolic stability in rat plasma at 1 uM after 4 hrs; type: ADME, cell-free; conditions: read-out: Stability
[27] = test system: L5178Y; assay: Genotoxicity in mouse L5178Y cells after 23 hrs in absence of S9 fraction by micronucleus test; type: toxicity, cell-based
[28] = test system: L5178Y; assay: Genotoxicity in mouse L5178Y cells after 3 hrs in presence of S9 fraction by micronucleus test; type: toxicity, cell-based; conditions: s9, 3 h
[29] = test system: Mus musculus; assay: Toxicity in Swiss mouse at 30 mg/kg, iv bid administered as bolus dose every 2 hrs measured daily for 5 days; type: organism-based; conditions: in vivo, 120 h
[30] = test system: Escherichia coli; assay: Antibacterial activity against Escherichia coli ATCC 35218 in Swiss mouse septicemia model assessed as mouse survival at 15 mg/kg, iv bid administered at 1 and 3 hrs post infection measured at 96 hrs relative to vehicle-treated control; type: functional; conditions: ATCC 35218, iv
[31] = test system: Escherichia coli; assay: Antibacterial activity against Escherichia coli ATCC 35218 in Swiss mouse septicemia model assessed as mouse survival at 30 mg/kg, iv bid administered at 1 and 3 hrs post infection measured at 96 hrs relative to vehicle-treated control; type: functional; conditions: ATCC 35218, iv
[32] = test system: Escherichia coli; assay: Antibacterial activity against Escherichia coli ATCC 35218 in Swiss mouse septicemia model assessed as decrease in bacterial burden in blood at 15 mg/kg, iv bid administered at 1 and 3 hrs post infection measured at 4 hrs relative to vehicle-treated control; type: functional
[33] = test system: Escherichia coli; assay: Antibacterial activity against Escherichia coli ATCC 35218 in Swiss mouse septicemia model assessed as decrease in bacterial burden in blood at 30 mg/kg, iv bid administered at 1 and 3 hrs post infection measured at 4 hrs relative to vehicle-treated control; type: functional
[34] = Protein binding in mouse plasma by equilibrium dialysis method; type: ADME, cell-free; conditions: read-out: PPB (converted)
[35] = AUC (0 to last) in Swiss mouse plasma at 30 mg/kg, iv administered as single bolus dose by LC-MS/MS method; type: ADME, organism-based; set-up: dose 30 mg/kg, route intravenous, time 0 - last
[36] = Half life in Swiss mouse plasma at 30 mg/kg, iv administered as single bolus dose by LC-MS/MS method; type: ADME, organism-based
[37] = Unbound concentration in Swiss mouse plasma at 30 mg/kg, iv administered as single bolus dose measured at 5 mins by LC-MS/MS method; type: ADME, organism-based; conditions: in vivo
[38] = Drug uptake in Swiss mouse lung at 30 mg/kg, iv administered as single bolus dose by LC-MS/MS method; type: ADME, organism-based; conditions: in vivo
[39] = Drug uptake in Swiss mouse liver at 30 mg/kg, iv administered as single bolus dose by LC-MS/MS method; type: ADME, organism-based; conditions: in vivo
[40] = Drug uptake in Swiss mouse kidney at 30 mg/kg, iv administered as single bolus dose by LC-MS/MS method; type: ADME, organism-based; conditions: in vivo
[41] = test system: Mus musculus; assay: Time during which free lung concentration exceeds in vitro MIC for Escherichia coli ATCC 35218 in Swiss mouse at 30 mg/kg, iv administered as single bolus dose by LC-MS/MS method; type: ADME, organism-based; conditions: in vivo
[42] = test system: Mus musculus; assay: Time during which free liver concentration exceeds in vitro MIC for Escherichia coli ATCC 35218 in Swiss mouse at 30 mg/kg, iv administered as single bolus dose by LC-MS/MS method; type: ADME, organism-based; conditions: in vivo
[43] = test system: Mus musculus; assay: Time during which free kidney concentration exceeds in vitro MIC for Escherichia coli ATCC 35218 in Swiss mouse at 30 mg/kg, iv administered as single bolus dose by LC-MS/MS method; type: ADME, organism-based; conditions: in vivo

Work on `N[C@H]1CCN(c2cc3c(cc2F)n2ncnc2c(=O)n3C2CC2)C1` yielded an MIC [1] of 2 µg/mL (≈ 6.09 µM), an MIC [2] of 4 µg/mL (≈ 12.2 µM) and an MIC [3] of under 0.125 µg/mL. It also gave an MIC [4] of 1 µg/mL (≈ 3.05 µM), an MIC [5] of over 64 µg/mL and an MIC [6] of 1 µg/mL (≈ 3.05 µM). For the same compound, the MIC [7] was 4 µg/mL (≈ 12.2 µM), the CC50 at 40 h [8] was over 30 µM and the MIC [9] was 4 µg/mL (≈ 12.2 µM). It also gave an MIC [10] of 0.5 µg/mL (≈ 1.52 µM), an MIC [11] of over 64 µg/mL and an MIC [12] of 32 µg/mL (≈ 97.5 µM). The Activity [13] was “Active”, the Activity [14] was “Active” and the inhibition [15] was 50 to 60%. The inhibition [16] was 50 to 60%, the solubility thermodynamic [17] was 926 µg/mL (≈ 2820 µM) and the Papp [18] was 3.2 ×10⁻⁶ cm/s. For the same compound, the metabolised at 20 min, 5 µM [19] was 0%, the metabolised at 20 min, 5 µM [20] was 8% and the metabolised at 20 min, 5 µM [21] was 8%. For the same compound, the IC50 [22] was over 30 µM, the IC50 [23] was over 30 µM and the IC50 [24] was over 30 µM. The remaining at 4 h, 1 µM [25] was 80 to 120%, the remaining at 4 h, 1 µM [26] was 80 to 120% and the Activity [27] was “Toxic”. For the same compound, the Activity [28] was “Toxic”, the Activity [29] was “Non-Toxic” and the survival at 15 mg/kg [30] was 0%. For the same compound, the survival at 30 mg/kg [31] was 30%, the Activity [32] was 1.6 deltalog10CFU/ml and the Activity [33] was 3.2 deltalog10CFU/ml. For the same compound, the fraction unbound [34] was 0.38, the AUC(0-t) [35] was 7200 ng·h/mL and the half-life [36] was 1 h. For the same compound, the “Cp(f)” value [37] was 2500 ng/mL, the Drug uptake [38] was “Active” and the Drug uptake [39] was “Active”. The Drug uptake [40] was “Active”, the Time [41] was 2 h and the Time [42] was 2 h. It also gave a Time [43] of 2 h.
